From patent publication US6417187B2, “1,2,4-triazole based compounds that can be used as insecticides or acaricides and processes” (Dow AgroSciences LLC, priority 2000, dated 2002)

What was measured:
Assay type in all cases: in vivo
[1] = tested on: tobacco budworm (Heliothis virescens); assay: Insecticidal test for tobacco budworm (cotton cotyledon leaf-disc dip)
[2] = tested on: beet armyworm (Spodoptera exigua); assay: Insecticidal test for beet armyworm (treated lepidopteran diet)
[3] = tested on: cabbage looper (Trichoplusia ni); assay: Insecticidal test for cabbage looper (cabbage leaf-disc dip)
[4] = tested on: cotton aphid (Aphis gossvpii); assay: Insecticidal test for cotton aphid (squash cotyledon spray)
[5] = tested on: Sweetpotato Whitefly (Bemisia tabacia); assay: Insecticidal test for Sweetpotato Whitefly (cotton plant spray)
[6] = tested on: Brown Planthopper (Nilaparvata lugens); assay: Insecticidal test for Brown Planthopper (rice seedling roots in test solution)
[7] = tested on: Green Leafhopper (Nephotettix cincticeps); assay: Insecticidal test for Green Leafhopper (rice seedling roots in test solution)
[8] = 400 ppm, cotton cotyledon leaf-dip, 2nd instar larvae, 5 days
[9] = 400 ppm, treated diet, second-instar larvae, 5 days
[10] = 400 ppm, cabbage leaf-dip, 2nd instar larvae, 5 days
[11] = 50 ppm spray on infested squash cotyledons, 3 days, population reduction versus untreated
[12] = 200 ppm spray on cotton plants, 13 days, reduction of large nymphs
[13] = 10 ppm test solution, rice seedling roots, 3rd instar nymphs, mortality at 6 days

CCCCCCCOc1ccc(C#Cc2sc(-c3nc(-c4c(F)cccc4Cl)nn3C)c(Cl)c2Cl)cc1 [Compound 56]
TBW: activity at 400 ppm against tobacco budworm (% Control rating) [1, 8]: A (90-100)
BAW: activity at 400 ppm against beet armyworm (% Control rating) [2, 9]: A (90-100)
CL: activity at 400 ppm against cabbage looper (% Control rating) [3, 10]: A (90-100)
CA: activity at 50 ppm against cotton aphid (% Control rating) [4, 11]: E (50-59)
WF: activity at 200 ppm against whitefly (% Control rating) [5, 12]: F (less than 50)
BPH: activity at 10 ppm against brown planthopper (% Control rating) [6, 13]: F (less than 50)

CCOc1ccc(C#Cc2sc(-c3nc(-c4c(F)cccc4Cl)nn3C)c(Cl)c2Cl)cc1C(F)(F)F [Compound 49]
TBW: activity at 400 ppm against tobacco budworm (% Control rating) [1, 8]: D (60-69)
BAW: activity at 400 ppm against beet armyworm (% Control rating) [2, 9]: A (90-100)
CL: activity at 400 ppm against cabbage looper (% Control rating) [3, 10]: A (90-100)
CA: activity at 50 ppm against cotton aphid (% Control rating) [4, 11]: F (less than 50)
WF: activity at 200 ppm against whitefly (% Control rating) [5, 12]: F (less than 50)
BPH: activity at 10 ppm against brown planthopper (% Control rating) [6, 13]: F (less than 50)

Cn1nc(-c2c(F)cccc2Cl)nc1-c1sc(C#Cc2ccc(F)cc2)c(Cl)c1Cl [Compound 12]
BAW: activity at 400 ppm against beet armyworm (% Control rating) [2, 9]: A (90-100)
CL: activity at 400 ppm against cabbage looper (% Control rating) [3, 10]: A (90-100)
CA: activity at 50 ppm against cotton aphid (% Control rating) [4, 11]: C (70-79)
WF: activity at 200 ppm against whitefly (% Control rating) [5, 12]: F (less than 50)
BPH: activity at 10 ppm against brown planthopper (% Control rating) [6, 13]: F (less than 50)
GLH: activity at 10 ppm against green leafbopper (% Control rating) [7, 13]: F (less than 50)

CCCCCCc1ccc(C#Cc2sc(-c3nc(-c4c(F)cccc4Cl)nn3C)c(Cl)c2Cl)cc1 [Compound 54]
TBW: activity at 400 ppm against tobacco budworm (% Control rating) ([1]; in vivo): A (key: A: 90-100; B: 80-89; C: 70-79; D: 60-69; E: 50-59; F: less than 50; G: inactive)
BAW: activity at 400 ppm against beet armyworm (% Control rating) ([2]; in vivo): A (key: A: 90-100; B: 80-89; C: 70-79; D: 60-69; E: 50-59; F: less than 50; G: inactive)
CL: activity at 400 ppm against cabbage looper (% Control rating) ([3]; in vivo): B (key: A: 90-100; B: 80-89; C: 70-79; D: 60-69; E: 50-59; F: less than 50; G: inactive)
CA: activity at 50 ppm against cotton aphid (% Control rating) ([4]; in vivo): E (key: A: 90-100; B: 80-89; C: 70-79; D: 60-69; E: 50-59; F: less than 50; G: inactive)
WF: activity at 200 ppm against whitefly (% Control rating) ([5]; in vivo): F (key: A: 90-100; B: 80-89; C: 70-79; D: 60-69; E: 50-59; F: less than 50; G: inactive)
BPH: activity at 10 ppm against brown planthopper (% Control rating) ([6]; in vivo): F (key: A: 90-100; B: 80-89; C: 70-79; D: 60-69; E: 50-59; F: less than 50; G: inactive)
GLH: activity at 10 ppm against green leafbopper (% Control rating) ([7]; in vivo): F (key: A: 90-100; B: 80-89; C: 70-79; D: 60-69; E: 50-59; F: less than 50; G: inactive)

Cn1nc(-c2c(F)cccc2Cl)nc1-c1sc(C#Cc2ccccc2F)c(Cl)c1Cl [Compound 9]
TBW: activity at 400 ppm against tobacco budworm (% Control rating) [1, 8]: A (90-100)
BAW: activity at 400 ppm against beet armyworm (% Control rating) [2, 9]: B (80-89)
CL: activity at 400 ppm against cabbage looper (% Control rating) [3, 10]: A (90-100)
WF: activity at 200 ppm against whitefly (% Control rating) [5, 12]: F (less than 50)
BPH: activity at 10 ppm against brown planthopper (% Control rating) [6, 13]: F (less than 50)

CCCCCCCc1ccc(C#Cc2sc(-c3nc(-c4c(F)cccc4Cl)nn3C)c(Cl)c2Cl)cc1 [Compound 55]
TBW: activity at 400 ppm against tobacco budworm (% Control rating) ([1]; in vivo): D (key: A: 90-100; B: 80-89; C: 70-79; D: 60-69; E: 50-59; F: less than 50; G: inactive)
BAW: activity at 400 ppm against beet armyworm (% Control rating) ([2]; in vivo): A (key: A: 90-100; B: 80-89; C: 70-79; D: 60-69; E: 50-59; F: less than 50; G: inactive)
CL: activity at 400 ppm against cabbage looper (% Control rating) ([3]; in vivo): A (key: A: 90-100; B: 80-89; C: 70-79; D: 60-69; E: 50-59; F: less than 50; G: inactive)
CA: activity at 50 ppm against cotton aphid (% Control rating) ([4]; in vivo): F (key: A: 90-100; B: 80-89; C: 70-79; D: 60-69; E: 50-59; F: less than 50; G: inactive)
WF: activity at 200 ppm against whitefly (% Control rating) ([5]; in vivo): F (key: A: 90-100; B: 80-89; C: 70-79; D: 60-69; E: 50-59; F: less than 50; G: inactive)
BPH: activity at 10 ppm against brown planthopper (% Control rating) ([6]; in vivo): F (key: A: 90-100; B: 80-89; C: 70-79; D: 60-69; E: 50-59; F: less than 50; G: inactive)
GLH: activity at 10 ppm against green leafbopper (% Control rating) ([7]; in vivo): F (key: A: 90-100; B: 80-89; C: 70-79; D: 60-69; E: 50-59; F: less than 50; G: inactive)

Cn1nc(-c2c(F)cccc2Cl)nc1-c1ccc(C#Cc2ccc(C(F)(F)F)cc2)c(Cl)c1Cl [Compound 94, 1-Methyl-3-(2-Chloro-6-fluorophenyl)-5-(2,3-dichloro-4-(2-(4-trifluoromethyl)phenyl)-ethynyl-phenyl)-1 H[1,2,4]triazole]
pest or weed control at 400 ppm ([1]; Heliothis virescens, 120 h, 400 ppm, cotton cotyledon leaf-dip, 2nd instar larvae, 5 days, read-out: TBW: activity at 400 ppm against tobacco budworm (% Control rating)): 60 to 69%
pest or weed control at 400 ppm ([2]; Spodoptera exigua, 120 h, 400 ppm, treated diet, second-instar larvae, 5 days, read-out: BAW: activity at 400 ppm against beet armyworm (% Control rating)): 90 to 100%
pest or weed control at 400 ppm ([3]; Trichoplusia ni, 120 h, 400 ppm, cabbage leaf-dip, 2nd instar larvae, 5 days, read-out: CL: activity at 400 ppm against cabbage looper (% Control rating)): 90 to 100%
pest or weed control at 50 ppm ([4]; 72 h, 50 ppm spray on infested squash cotyledons, 3 days, population reduction versus untreated, read-out: CA: activity at 50 ppm against cotton aphid (% Control rating)): 80 to 89%
pest or weed control at 200 ppm ([5]; Bemisia, 312 h, 200 ppm spray on cotton plants, 13 days, reduction of large nymphs, read-out: WF: activity at 200 ppm against whitefly (% Control rating)): < 50%

Cn1nc(-c2c(F)cccc2Cl)nc1-c1sc(C#Cc2ccc(-c3ccccc3)cc2)c(Cl)c1Cl [Compound 16]
BAW: activity at 400 ppm against beet armyworm (% Control rating) [2, 9]: F (less than 50)
CL: activity at 400 ppm against cabbage looper (% Control rating) [3, 10]: D (60-69)
CA: activity at 50 ppm against cotton aphid (% Control rating) [4, 11]: F (less than 50)
WF: activity at 200 ppm against whitefly (% Control rating) [5, 12]: F (less than 50)
BPH: activity at 10 ppm against brown planthopper (% Control rating) [6, 13]: F (less than 50)
GLH: activity at 10 ppm against green leafbopper (% Control rating) [7, 13]: F (less than 50)

CCCc1ccc(C#Cc2sc(-c3nc(-c4c(F)cccc4Cl)nn3CC)c(Cl)c2Cl)cc1 [Compound 81]
TBW: activity at 400 ppm against tobacco budworm (% Control rating) [1, 8]: F (less than 50)
BAW: activity at 400 ppm against beet armyworm (% Control rating) [2, 9]: A (90-100)
CL: activity at 400 ppm against cabbage looper (% Control rating) [3, 10]: D (60-69)
CA: activity at 50 ppm against cotton aphid (% Control rating) [4, 11]: F (less than 50)
WF: activity at 200 ppm against whitefly (% Control rating) [5, 12]: F (less than 50)
